Results on one compound are retold here after patent US20110233146A1, “S[…] CONTROL COMPOSITION, SYSTEMS, AND RELATED METHODS THEREFOR” (Siemens Water Technologies Corp., priority 2009, published 2011).

The test system of test [1] is atmospheric hydrogen sulfide. Put plainly: Sewerage system field trial (Example 1): atmospheric hydrogen sulfide logged at lift stations LS481 and LS480.
Text: The collection system consisted of four serial master lift stations LS 479, LS482, LS 481, and LS 480 feeding wastewater to a central treatment plant WWTP as depicted in FIG. 2.
Calcium hydroxide (with or without anthraquinone) feed rate was dependent mainly on the wastewater flow rate.
Data collected included atmospheric hydrogen sulfide collected every five minutes with monitor/loggers within the monitoring manhole at lift station LS481 and inside the lift station LS480, and dissolved sulfide grab samples at each as well as treatment plant WWTP. Nitrate residual and pH data were also collected. […] The chemical feed line was disposed to feed into the manhole about 50 feet upstream of lift station LS482.
Over the next few weeks the controller pH set point was adjusted until the desired atmospheric pH was attained downstream at lift station LS481.
Two batches of a formulation of calcium hydroxide supplemented with anthraquinone were fed to determine the effectiveness of the combination for controlling odor.
The primary monitoring point for atmospheric hydrogen sulfide was at lift station LS481. The primary monitoring point for dissolved sulfide was the plant influent. During the period from June 23 to July 14 background data was gathered (FIG. 4) to reflect the system operating on nitrate salt feed at all four lift stations.
The data was tabulated for every day on which no calcium hydroxide was fed and that nitrate salt was fed at all four lift stations.
Test [2] concerns atmospheric hydrogen sulfide. Kind of test: Example 2: slug dose of anthraquinone alone, all other chemical feed off at LS482, atmospheric hydrogen sulfide by OdaLog monitor/loggers. As for the experimental part: In order to gather the required information, the two OdaLog® hydrogen sulfide monitor/loggers were deployed in the manhole just prior to lift station LS481 prior to 10:00 a.m. on day one. At 10:00 a.m. on day one all chemical feed was turned off at lift station LS482. At 10:00 a.m. on day two a ten gallon slug of anthraquinone (AQUIT) was added to the flow through the manhole at lift station LS482. At 10:00 a.m. on day three, regular chemical feed was resumed at lift station LS482. The OdaLog® monitor/loggers were retrieved on day six and downloaded to retrieve the atmospheric hydrogen sulfide concentrations before, during, and following the trial.
Data was collected over a period of several days to include a full day prior to the test and a full day after the test as summarized in the graph of FIG. 7.
The average atmospheric hydrogen sulfide concentration for the 24 hour period with no chemical additive was about 1,032 ppmv. During the following 24 hour period during which the effect of the slug dose of anthraquinone, the atmospheric hydrogen sulfide concentration averaged about 999 ppmv; the hydrogen sulfide concentration was thus reduced by about 3.2 percent.

The mark [3] stands for this setting: 10/14 to 10/17, after 10 gal anthraquinone slug on 10/13 at LS482, with calcium hydroxide slurry 258 GPD, nitrate salt solution 197 GPD.

As to `O=C1c2ccccc2C(=O)c2ccccc21` [Anthraquinone, anthraquinone], in test [1] (setting [3]), the “LS480 Avg Atm H2S” value is 305 ppmv and the “LS481 Avg Atm H2S” value is 100 ppmv. Also, the “decrease in atmospheric hydrogen sulfide concentration at the downstream monitoring point” value in test [1] (anthraquinone added to the alkaline material used for pH adjustment, versus alkaline material without it) is reported as 21%. Moreover, the “atmospheric hydrogen sulfide downstream dropped” value in test [1] (anthraquinone added with calcium hydroxide to the sewer upstream of the sampling point (see Table 8)) is recorded as 37.5%. Besides, the “reduction in the hydrogen sulfide concentration at the downstream monitoring point lift station LS481” value in test [1] (one time slug of anthraquinone along with the calcium hydroxide feed, over the next four days) is reported as “about 38%”. For the same compound, in test [2] (24 hour period under the effect of a ten gallon slug of anthraquinone alone, preceding 24 hours with no chemical additive about 1,032 ppmv), the “average atmospheric hydrogen sulfide concentration” value is “about 999 ppmv”. Also, the “hydrogen sulfide concentration reduced by” value in test [2] (ten gallon slug of anthraquinone alone versus preceding 24 hours with no chemical additive) is on record as “about 3.2%”.
